The data set can be described thus: Hydrophilicity evaluated from HPLC retention times. The class given is physicochemical. To be noted: comparison to native Trichogin GA IV, C18 column Phenomenex Jupiter 5 μm, 300 Å, 250 × 4.5 mm, gradient 60%–100% B in 30 min, A H2O/CH3CN 9:1 0.05% TFA, B CH3CN/H2O 9:1 0.05% TFA.

As to “1-octanoyl-Aib-Gly-Leu-Aib-Gly-Gly-Leu-Aib-Gly-Ile-Lol [Trichogin GA IV, 11-residue lipopeptaibol naturally produced by Trichoderma longibrachiatum]”, the Hydrophilicity result was “Native”.

Source of the values: PMC9161086, “Water-Soluble Trichogin GA IV-Derived Peptaibols Protect Tomato Plants From Botrytis cinerea Infection With Limited Impact on Plant Defenses” (Frontiers in Plant Science, 2022).
